Data reported in ChEMBL document CHEMBL1137685, “A three-step synthesis from rebeccamycin of an efficient checkpoint kinase 1 inhibitor” (Eur J Med Chem, 2009).

Legend:
[1] = molecular target: T1, Serine/threonine-protein kinase Chk1 (Homo sapiens, UniProt O14757); assay: Inhibition of GST-tagged human full-length CHK1 expressed in Sf9 cells
T1 sequence (O14757 whole entry): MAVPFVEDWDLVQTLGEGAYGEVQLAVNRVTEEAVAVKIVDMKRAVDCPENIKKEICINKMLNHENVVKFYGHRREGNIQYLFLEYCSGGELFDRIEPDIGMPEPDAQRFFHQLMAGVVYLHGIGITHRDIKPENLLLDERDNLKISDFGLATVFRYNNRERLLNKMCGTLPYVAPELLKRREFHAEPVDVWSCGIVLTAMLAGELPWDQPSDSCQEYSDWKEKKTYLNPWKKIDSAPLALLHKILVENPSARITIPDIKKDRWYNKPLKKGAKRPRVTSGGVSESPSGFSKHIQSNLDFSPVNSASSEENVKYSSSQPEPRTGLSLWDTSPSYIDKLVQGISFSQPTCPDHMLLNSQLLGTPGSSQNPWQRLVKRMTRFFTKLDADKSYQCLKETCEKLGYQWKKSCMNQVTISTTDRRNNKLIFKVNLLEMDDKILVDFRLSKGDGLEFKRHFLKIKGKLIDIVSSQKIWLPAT

[2] = molecular target: Proto-oncogene tyrosine-protein kinase Src (Homo sapiens) (UniProt P12931); assay: Inhibition of Src at 1 uM
[3] = molecular target: T2, Serine/threonine-protein kinase Chk1 (Homo sapiens) (UniProt O14757); conditions: Sf9, 0.1 uM
T2 sequence (whole entry): T1 sequence (O14757 whole entry)
Description: Inhibition of GST-tagged human full-length CHK1 expressed in Sf9 cells at 0.1 uM

Sequence of Proto-oncogene tyrosine-protein kinase Src (Homo sapiens) (P12931 2-536 limits assumed): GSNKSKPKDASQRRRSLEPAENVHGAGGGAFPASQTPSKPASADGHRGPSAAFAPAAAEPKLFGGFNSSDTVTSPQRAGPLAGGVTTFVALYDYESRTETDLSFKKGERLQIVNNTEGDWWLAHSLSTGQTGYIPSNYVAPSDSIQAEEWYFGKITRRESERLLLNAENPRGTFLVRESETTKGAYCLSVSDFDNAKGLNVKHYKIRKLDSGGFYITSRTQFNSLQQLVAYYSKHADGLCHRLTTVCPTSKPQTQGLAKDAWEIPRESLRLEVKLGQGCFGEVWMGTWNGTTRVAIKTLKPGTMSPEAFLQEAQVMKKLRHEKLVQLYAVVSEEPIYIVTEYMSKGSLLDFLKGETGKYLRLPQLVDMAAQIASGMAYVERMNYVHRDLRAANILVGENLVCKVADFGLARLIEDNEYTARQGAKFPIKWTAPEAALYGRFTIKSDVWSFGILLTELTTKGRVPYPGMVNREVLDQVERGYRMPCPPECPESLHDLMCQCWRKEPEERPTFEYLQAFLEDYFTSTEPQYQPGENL

IC50 [1]: 2.8 nM
inhibition [2]: 35%
inhibition [3]: 90%
SMILES: CO[C@H]1[C@H](O)[C@H]2[C@@H](O[C@@H]1CN)n1c3ccccc3c3c4c(c5c6ccccc6n2c5c31)C(=O)NC4=O
